Measured values from the NIST ThermoML archive (doi:10.1021/je700345b).
Values joined by “and” are separate entries in the source; they are usually repeats but may differ in a detail not shown here. Equal values may be shown once.

Experiment: wn = mass fraction of the nth substance listed
Conditions: Liquid, w2 = 0.5

CC(F)(F)F [1,1,1-trifluoroethane] + FC(F)C(F)(F)F
Conditions | viscosity
253.26 K, 2000 kPa | 0.237 mPa·s
253.26 K, 2010 kPa | 0.2374 mPa·s
253.26 K, 2090 kPa | 0.2377 mPa·s
253.26 K, 2170 kPa | 0.2378 mPa·s
253.26 K, 2180 kPa | 0.2371 mPa·s
253.26 K, 2220 kPa | 0.2379 mPa·s
253.26 K, 3370 kPa | 0.2426 mPa·s
253.26 K, 3380 kPa | 0.2427 mPa·s
253.26 K, 3390 kPa | 0.2427 mPa·s
253.26 K, 3410 kPa | 0.2425 mPa·s
253.26 K, 4930 kPa | 0.2479 mPa·s
253.26 K, 4960 kPa | 0.2479 mPa·s
253.26 K, 4970 kPa | 0.248 mPa·s
253.26 K, 4990 kPa | 0.2482 mPa·s
253.26 K, 5020 kPa | 0.2483 mPa·s
253.26 K, 5070 kPa | 0.2487 mPa·s
253.26 K, 7440 kPa | 0.2574 mPa·s
253.26 K, 7500 kPa | 0.2576 mPa·s
253.26 K, 7620 kPa | 0.258 mPa·s
253.26 K, 7720 kPa | 0.2587 mPa·s
263.23 K, 1990 kPa | 0.2076 mPa·s
263.23 K, 2020 kPa | 0.2074 mPa·s
263.23 K, 2070 kPa | 0.2081 mPa·s
263.23 K, 2120 kPa | 0.2077 mPa·s
263.23 K, 3660 kPa | 0.2139 mPa·s
263.23 K, 3670 kPa | 0.2137 mPa·s and 0.2139 mPa·s
263.23 K, 3680 kPa | 0.2138 mPa·s and 0.2137 mPa·s
263.23 K, 3720 kPa | 0.214 mPa·s
263.23 K, 3780 kPa | 0.214 mPa·s
263.23 K, 4690 kPa | 0.2177 mPa·s
263.23 K, 4990 kPa | 0.2192 mPa·s
263.23 K, 5010 kPa | 0.2195 mPa·s
263.23 K, 7000 kPa | 0.2258 mPa·s
263.23 K, 7050 kPa | 0.2257 mPa·s
263.23 K, 7190 kPa | 0.2262 mPa·s
263.23 K, 7220 kPa | 0.227 mPa·s
273.24 K, 2150 kPa | 0.1827 mPa·s
273.24 K, 2160 kPa | 0.1825 mPa·s
273.24 K, 2190 kPa | 0.1826 mPa·s and 0.1823 mPa·s
273.24 K, 2230 kPa | 0.1829 mPa·s
273.24 K, 2260 kPa | 0.1829 mPa·s
273.24 K, 2270 kPa | 0.1829 mPa·s
273.24 K, 3450 kPa | 0.1878 mPa·s and 0.1876 mPa·s
273.24 K, 3470 kPa | 0.1877 mPa·s
273.24 K, 3480 kPa | 0.1873 mPa·s
273.24 K, 3500 kPa | 0.1878 mPa·s
273.24 K, 5030 kPa | 0.1923 mPa·s
273.24 K, 5040 kPa | 0.1925 mPa·s
273.24 K, 5060 kPa | 0.1925 mPa·s
273.24 K, 7360 kPa | 0.2011 mPa·s
273.24 K, 7450 kPa | 0.2008 mPa·s
273.24 K, 7520 kPa | 0.2015 mPa·s
273.24 K, 9710 kPa | 0.2103 mPa·s
273.24 K, 9880 kPa | 0.2106 mPa·s and 0.2104 mPa·s
283.34 K, 2000 kPa | 0.1592 mPa·s
283.34 K, 2060 kPa | 0.1592 mPa·s
283.34 K, 2120 kPa | 0.1591 mPa·s
283.34 K, 2160 kPa | 0.1591 mPa·s
283.34 K, 2220 kPa | 0.1593 mPa·s
283.34 K, 2230 kPa | 0.1592 mPa·s and 0.1596 mPa·s
283.34 K, 2250 kPa | 0.1596 mPa·s
283.34 K, 2260 kPa | 0.1595 mPa·s
283.34 K, 2270 kPa | 0.1597 mPa·s
283.34 K, 3720 kPa | 0.165 mPa·s
283.34 K, 3770 kPa | 0.1651 mPa·s and 0.1654 mPa·s
283.34 K, 3820 kPa | 0.1654 mPa·s
283.34 K, 3860 kPa | 0.1655 mPa·s
283.34 K, 3880 kPa | 0.1657 mPa·s
283.34 K, 4970 kPa | 0.1693 mPa·s
283.34 K, 5000 kPa | 0.1693 mPa·s
283.34 K, 5030 kPa | 0.1696 mPa·s
283.34 K, 5040 kPa | 0.1695 mPa·s
283.34 K, 7600 kPa | 0.178 mPa·s
283.34 K, 7640 kPa | 0.1783 mPa·s
283.34 K, 7680 kPa | 0.1784 mPa·s
283.34 K, 9750 kPa | 0.1851 mPa·s
283.34 K, 9860 kPa | 0.1854 mPa·s
283.34 K, 9900 kPa | 0.1857 mPa·s
283.34 K, 9920 kPa | 0.1857 mPa·s
283.34 K, 9930 kPa | 0.1856 mPa·s
293.33 K, 1920 kPa | 0.1394 mPa·s
293.33 K, 1940 kPa | 0.1392 mPa·s
293.33 K, 1970 kPa | 0.1396 mPa·s
293.33 K, 2020 kPa | 0.1394 mPa·s
293.33 K, 3570 kPa | 0.145 mPa·s
293.33 K, 3690 kPa | 0.1454 mPa·s
293.33 K, 3720 kPa | 0.1455 mPa·s
293.33 K, 3750 kPa | 0.1457 mPa·s
293.33 K, 4910 kPa | 0.1503 mPa·s and 0.15 mPa·s
293.33 K, 5000 kPa | 0.1506 mPa·s
293.33 K, 5030 kPa | 0.1506 mPa·s
293.33 K, 7510 kPa | 0.1585 mPa·s
293.33 K, 7540 kPa | 0.1584 mPa·s
293.33 K, 7560 kPa | 0.1584 mPa·s
293.33 K, 9770 kPa | 0.1667 mPa·s
293.33 K, 9810 kPa | 0.1669 mPa·s
293.33 K, 9850 kPa | 0.1666 mPa·s
293.33 K, 9880 kPa | 0.1669 mPa·s
293.33 K, 9930 kPa | 0.1672 mPa·s
